In patent publication US8106055B2, “Substituted amide compounds” (Gruenenthal GmbH, priority 2007, dated 2012):

How the values were obtained:
[1] = molecular target: T1, human bradykinin 1 receptor (B1R) (Homo sapiens, UniProt P46663); assay: Functional investigation on the human bradykinin 1 receptor (B1R), Ca2+ FLIPR assay in CHO K1 hB1R cells; format: cell-based; conditions: B1R antagonism human; test substance 10 μM; Ca2+ FLIPR, CHO K1 hB1R cells
T1 construct: expressed in transfected cells; host or cells: CHO K1 cells
T1 sequence (P46663 1-353): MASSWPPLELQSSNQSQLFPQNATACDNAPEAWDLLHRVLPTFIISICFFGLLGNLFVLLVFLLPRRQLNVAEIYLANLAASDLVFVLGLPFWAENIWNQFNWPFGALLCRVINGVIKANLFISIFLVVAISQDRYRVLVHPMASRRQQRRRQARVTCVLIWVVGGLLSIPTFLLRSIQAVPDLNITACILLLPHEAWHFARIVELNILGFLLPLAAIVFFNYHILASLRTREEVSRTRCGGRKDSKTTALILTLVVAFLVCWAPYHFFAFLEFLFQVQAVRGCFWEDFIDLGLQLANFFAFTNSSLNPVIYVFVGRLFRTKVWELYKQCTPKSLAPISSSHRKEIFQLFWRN
In short: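 Stably transfected CHO K1 cells loaded with Fluo-4; FLIPR Ca2+ fluorescence peak (ex 488/em 540 nm). Compound added first (agonism vs Lys-Des-Arg9-bradykinin ≥50 nM human, Des-Arg9-bradykinin 10 μM rat), then after 10-20 min agonist at EC80; antagonism as % inhibition, IC50 from concentration series, n=2-3, N≥2.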

[2] = molecular target: T2, serotonin (5-HT) reuptake (Rattus norvegicus, UniProt P31652); assay: Inhibition of serotonin (5HT) reuptake in synaptosomes from rat brain; format: biochemical; conditions: test concentration of 10 μM
T2 construct: synaptosomes are freshly isolated from areas of the rat brain; from tissue; host or cells: rat brain synaptosomes (P2 fraction)
T2 sequence (P31652 whole entry): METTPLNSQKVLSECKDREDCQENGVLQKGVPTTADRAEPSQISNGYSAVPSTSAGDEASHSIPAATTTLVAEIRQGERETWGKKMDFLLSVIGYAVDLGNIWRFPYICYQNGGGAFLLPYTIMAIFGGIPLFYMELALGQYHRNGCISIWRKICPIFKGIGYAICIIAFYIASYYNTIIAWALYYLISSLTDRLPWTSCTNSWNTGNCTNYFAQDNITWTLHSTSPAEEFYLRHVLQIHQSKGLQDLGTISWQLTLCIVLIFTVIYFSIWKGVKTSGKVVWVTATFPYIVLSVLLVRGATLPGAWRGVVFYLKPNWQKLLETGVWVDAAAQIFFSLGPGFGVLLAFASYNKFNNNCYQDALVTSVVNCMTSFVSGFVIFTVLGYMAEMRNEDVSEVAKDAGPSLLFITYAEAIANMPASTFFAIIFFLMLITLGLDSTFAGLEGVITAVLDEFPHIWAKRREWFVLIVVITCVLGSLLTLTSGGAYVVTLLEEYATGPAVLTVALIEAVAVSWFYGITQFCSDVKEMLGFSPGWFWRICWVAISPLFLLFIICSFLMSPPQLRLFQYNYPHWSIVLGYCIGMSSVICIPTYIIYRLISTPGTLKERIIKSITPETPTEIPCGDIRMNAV
In short: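 Freshly isolated rat brain synaptosomes (P2 fraction) used for 5-HT reuptake. Test compound at 10 μM, activity given as % inhibition.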

Compound	B1R Ant. h [10 μM] % Inhibition [1] [%]	5-HT (inhibition of reuptake of serotonin, % inhibition) [2] [%]
COc1ccc(S(=O)(=O)N(C)CCOCC(=O)NCCC2CCC(C(c3ccc(Cl)cc3)N(C)C)CC2)cc1OC (centres unmarked) [Example 339]	−9	78
COc1cc(C)c(S(=O)(=O)N2CCC(OCC(=O)NCCC3CCC(C(c4cccc(F)c4)N(C)C)CC3)C2)c(C)c1 (centres unmarked) [Example 307]	105	97
CCN(CCOCC(=O)NCC1CCC(C(c2ccc(Cl)cc2)N(C)C)CC1)S(=O)(=O)c1c(C)cc(OC)c(C)c1C (centres unmarked) [Example 310]	89	83
COc1ccc(S(=O)(=O)N2CCC(OCC(=O)NCCC3CCC(C(c4ccc(Cl)cc4)N(C)C)CC3)C2)cc1OC (centres unmarked) [Example 338]	−3	86
CN(C)C(c1cccc(F)c1)C1CCC(CNC(=O)COCCN(C)S(=O)(=O)c2ccc(OC(F)(F)F)cc2)CC1 (centres unmarked) [Example 303]	−19	83
CN(C)C(c1ccc(F)cc1)C1CCC(NC(=O)COCCN(C)S(=O)(=O)c2ccc(F)cc2)CC1 (centres unmarked) [Example 357]	7	86
Cc1ccc(S(=O)(=O)N2CCC(OCC(=O)NCCC3CCC(C(c4ccc(Cl)cc4)N(C)C)CC3)C2)cc1 (centres unmarked) [Example 305]	30	88
CN(C)C(c1cccs1)C1CCC(NC(=O)COCCN(C)S(=O)(=O)c2ccc(OC(F)(F)F)cc2)CC1 (centres unmarked) [Example 282]	−31	52
COc1ccc(S(=O)(=O)N(C)CCOCC(=O)NCCC2CCC(C(c3cccc(F)c3)N(C)C)CC2)cc1OC (centres unmarked) [Example 293]	−7	95
COc1ccc(S(=O)(=O)N2CCCC2COCC(=O)NCC2CCC(C(c3ccc(Cl)cc3)N(C)C)CC2)cc1 (centres unmarked) [Example 351]	52	97
COc1ccc(S(=O)(=O)N2CCCCC2COCC(=O)NCC2CCC(C(c3ccc(Cl)cc3)N(C)C)CC2)c(OC)c1 (centres unmarked) [Example 280]	51	78
COc1ccc(S(=O)(=O)N2CCCCC2COCC(=O)NC2CCC(C(c3cccc(F)c3)N(C)C)CC2)c(OC)c1 (centres unmarked) [Example 322]	−14	78
CN(C)C(c1ccc(F)cc1)C1CCC(CNC(=O)COCCN(C)S(=O)(=O)c2c(Cl)cccc2Cl)CC1 (centres unmarked) [Example 334]	103	83
COc1ccc(S(=O)(=O)N2CCC(OCC(=O)NC3CCC(C(c4cccc(F)c4)N(C)C)CC3)C2)cc1OC (centres unmarked) [Example 323]	−14	91
COc1cc(C)c(S(=O)(=O)N(C)CCOCC(=O)NCCC2CCC(C(c3ccc(F)cc3)N(C)C)CC2)c(C)c1C (centres unmarked) [Example 354]	104	90
CN(C)C(c1ccc(Cl)cc1)C1CCC(CNC(=O)COCCN(C)S(=O)(=O)c2ccc(Cl)cc2)CC1 (centres unmarked) [Example 284]	48	87
CN(C)C(c1ccc(F)cc1)C1CCC(NC(=O)COCC2CCCN2S(=O)(=O)c2ccc(Cl)c(Cl)c2)CC1 (centres unmarked) [Example 344]	65	97
COc1ccc(S(=O)(=O)N2CCCCC2COCC(=O)NCCC2CCC(C(c3ccc(Cl)cc3)N(C)C)CC2)cc1 (centres unmarked) [Example 311]	69	95
CN(C)C(c1ccc(F)cc1)C1CCC(CCNC(=O)COCCN(C)S(=O)(=O)c2c(Cl)cccc2Cl)CC1 (centres unmarked) [Example 285]	97	89
